Where a name gives a salt, the structure may show the parent alone.
Row | SMILES | melting point
1 | COC(=O)CC(C(=O)OC)N1CCC(Nc2ncc3ncnc(Nc4cccc(Br)c4)c3n2)CC1 (centres unmarked) (as salt: maleate) [Example 6(4), 4-[(3-bromophenyl)amino]-6-({1-[1,2-bis(methoxycarbonyl)ethyl]piperidin-4-yl}amino)pyrimido[5,4-d]pyrimidine] | 193 °C
2 | O=C(O)CCCN1CCC(Nc2ncc3ncnc(Nc4ccc(F)c(Cl)c4)c3n2)CC1 [Example 1(2), 4-[(3-chloro-4-fluorophenyl)amino]-6-{[1-(3-carboxypropyl)piperidin-4-yl]amino}pyrimido[5,4-d]pyrimidine] | 145 to 165 °C
3 | CN(CCCC(=O)O)[C@H]1CC[C@H](Nc2ncc3ncnc(Nc4ccc(F)c(Cl)c4)c3n2)CC1 [Example 1(5), 4-[(3-chloro-4-fluorophenyl)amino]-6-({trans-4-[N-(3-carboxypropyl)-N-methylamino]cyclohex-1-yl}amino)pyrimido[5,4-d]pyrimidine] | 217 to 221 °C
4 | O=C(O)CN1CCN(CCNc2ncc3ncnc(Nc4ccc(F)c(Cl)c4)c3n2)CC1 [Example 1(13), 4-[(3-chloro-4-fluorophenyl)amino]-6-{2-[4-(carboxymethyl)piperazin-1-yl]ethylamino}pyrimido[5,4-d]pyrimidine] | 240 to 242 °C (dec.)
5 | O=C(O)CN(CC(=O)O)[C@H]1CC[C@H](Nc2ncc3ncnc(Nc4ccc(F)c(Cl)c4)c3n2)CC1 [Example 1(18), 4-[(3-chloro-4-fluorophenyl)amino]-6-({trans-4-[N,N-bis(carboxymethyl)amino]cyclohex-1-yl}amino)pyrimido[5,4-d]pyrimidine] | 245 °C (dec.)
6 | O=C(O)CCN(CCC(=O)O)CC1CCN(c2ncc3ncnc(Nc4ccc(F)c(Cl)c4)c3n2)CC1 [Example 1(19), 4-[(3-chloro-4-fluorophenyl)amino]-6-(4-{[N,N-bis(2-carboxyethyl)amino]methyl}piperidin-1-yl)pyrimido[5,4-d]pyrimidine] | 160 to 169 °C
7 | O=C(O)CN[C@H]1CC[C@H](Nc2ncc3ncnc(Nc4ccc(F)c(Cl)c4)c3n2)CC1 [Example 1(27), 4-[(3-chloro-4-fluorophenyl)amino]-6-({trans-4-[(carboxymethyl)amino]cyclohex-1-yl}amino)pyrimido [5,4-d]pyrimidine] | 201 to 205 °C (dec.)
8 | CCCOC(=O)CN1CCC(Nc2ncc3ncnc(Nc4ccc(F)c(Cl)c4)c3n2)CC1 [Example 2(2), 4-[(3-chloro-4-fluorophenyl)amino]-6-({1-[(propyloxycarbonyl)methyl]piperidin-4-yl}amino)pyrimido[5,4-d]pyrimidine] | 135 to 137 °C
9 | CC(C)OC(=O)CN1CCC(Nc2ncc3ncnc(Nc4ccc(F)c(Cl)c4)c3n2)CC1 [Example 2(3), 4-[(3-chloro-4-fluorophenyl)amino]-6-({1-[(isopropyloxycarbonyl)methyl]piperidin-4-yl}amino)pyrimido[5,4-d]pyrimidine] | 175 to 177 °C
10 | O=C(CN1CCC(Nc2ncc3ncnc(Nc4ccc(F)c(Cl)c4)c3n2)CC1)OC1CCCCC1 [Example 2(4), 4-[(3-chloro-4-fluorophenyl)amino]-6-({1-[(cyclohexyloxycarbonyl)methyl]piperidin-4-yl}amino)pyrimido[5,4-d]pyrimidine] | 184 to 186 °C
11 | COC(=O)CCN1CCC(Nc2ncc3ncnc(Nc4ccc(F)c(Cl)c4)c3n2)CC1 [Example 2(5), 4-[(3-chloro-4-fluorophenyl)amino]-6-({1-[2-(methoxycarbonyl)ethyl]piperidin-4-yl}amino)pyrimido[5,4-d]pyrimidine] | 136 to 137 °C
12 | COC(=O)CCCN1CCC(Nc2ncc3ncnc(Nc4ccc(F)c(Cl)c4)c3n2)CC1 [Example 2(6), 4-[(3-chloro-4-fluorophenyl)amino]-6-({1-[3-(methoxycarbonyl)propyl]piperidin-4-yl}amino)pyrimido[5,4-d]pyrimidine] | 135 to 137 °C
13 | COC(=O)CCN(C)[C@H]1CC[C@H](Nc2ncc3ncnc(Nc4ccc(F)c(Cl)c4)c3n2)CC1 [Example 2(8), 4-[(3-chloro-4-fluorophenyl)amino]-6-[(trans-4-{N-[2-(methoxycarbonyl)ethyl]-N-methylamino}cyclohex-1-yl)amino]pyrimido[5,4-d]pyrimidine] | 126 to 128 °C
14 | COC(=O)CCCN(C)[C@H]1CC[C@H](Nc2ncc3ncnc(Nc4ccc(F)c(Cl)c4)c3n2)CC1 [Example 2(9), 4-[(3-chloro-4-fluorophenyl)amino]-6-[(trans-4-{N-[3-(methoxycarbonyl)propyl]-N-methylamino}cyclohex-1-yl)amino]pyrimido[5,4-d]pyrimidine] | 99 to 102 °C
15 | COC(=O)CCC1CCN(C2CCN(c3ncc4ncnc(Nc5ccc(F)c(Cl)c5)c4n3)C2)CC1 (centres unmarked) [Example 2(16), 4-[(3-chloro-4-fluorophenyl)amino]-6-(3-{4-[2-(methoxycarbonyl)ethyl]piperidin-1-yl}-pyrrolidin-1-yl)pyrimido[5,4-d]pyrimidine] | 166 to 168 °C

Further lines, results first:

Row | melting point | SMILES
16 | 217 to 225 °C | O=C(O)CCN1CCC(Nc2ncc3ncnc(Nc4ccc(F)c(Cl)c4)c3n2)CC1 [Example 1(1), 4-[(3-chloro-4-fluorophenyl)amino]-6-{[1-(2-carboxyethyl)piperidin-4-yl]amino}pyrimido[5,4-d]pyrimidine]
17 | 111 to 145 °C | O=C(O)CCN1CCN(c2ncc3ncnc(Nc4ccc(F)c(Cl)c4)c3n2)CC1 [Example 1(7), 4-[(3-chloro-4-fluorophenyl)amino]-6-[4-(2-carboxyethyl)piperazin-1-yl]pyrimido[5,4-d]pyrimidine]
18 | 277 to 282 °C | NC1(C(=O)O)CCN(c2ncc3ncnc(Nc4ccc(F)c(Cl)c4)c3n2)CC1 [Example 1(14), 4-[(3-chloro-4-fluorophenyl)amino]-6-(4-amino-4-carboxypiperidin-1-yl)pyrimido[5,4-d]pyrimidine]
19 | 209 to 214 °C | O=C(O)CCNCC1CCN(c2ncc3ncnc(Nc4ccc(F)c(Cl)c4)c3n2)CC1 [Example 1(16), 4-[(3-chloro-4-fluorophenyl)amino]-6-(4-{[(2-carboxyethyl)amino]methyl}piperidin1-yl)pyrimido[5,4-d]pyrimidine]
20 | 226 to 235 °C | O=C(O)CNCC1CCN(c2ncc3ncnc(Nc4ccc(F)c(Cl)c4)c3n2)CC1 [Example 1(17), 4-[(3-chloro-4-fluorophenyl)amino]-6-(4-{[(carboxymethyl)amino]methyl}piperidin-1-yl)pyrimido[5,4-d]pyrimidine]
21 | 157 to 160 °C | CC1(NCCC(=O)O)CCN(c2ncc3ncnc(Nc4ccc(F)c(Cl)c4)c3n2)CC1 [Example 1(30), 4-[(3-chloro-4-fluorophenyl)amino]-6-{4-methyl-4-[(2-carboxyethyl)amino]piperidin-1-yl}pyrimido[5,4-d]pyrimidine]
22 | 160 °C (dec.) | CC1(NCC(=O)O)CCN(c2ncc3ncnc(Nc4ccc(F)c(Cl)c4)c3n2)CC1 [Example 1(32), 4-[(3-chloro-4-fluorophenyl)amino]-6-{4-methyl-4-[(carboxymethyl)amino]piperidin-1-yl}pyrimido[5,4-d]pyrimidine]
23 | 140 to 142 °C | COC(=O)CCN1CCN(c2ncc3ncnc(Nc4ccc(F)c(Cl)c4)c3n2)CC1 [Example 2(11), 4-[(3-chloro-4-fluorophenyl)amino]-6-[4-[2-(methoxycarbonyl)ethyl]piperazin-1-yl]pyrimido[5,4-d]pyrimidine]

Reference: patent publication US20020082420A1, “Bicyclic heterocycles, pharmaceutical compositions containing them, their use, and processes for preparing them” (priority 2000, published 2002)
